Reference: paper PMC9656735, “Eight Indole Alkaloids from the Roots of Maerua siamensis and Their Nitric Oxide Inhibitory Effects” (Molecules, 2022)
Where two headings read alike, the source gives them in different places.

Legend:
[1] = test system: nitric oxide (NO) production in LPS-induced RAW 264.7 cells; assay: Inhibition of nitric oxide production in LPS-induced RAW 264.7 cells (Griess reagent); format: cell-based; conditions: for IC50: Mus musculus; for nitric oxide inhibition activity compared with indomethacin: in words
Protocol: (§1) The compounds were dissolved in DMSO to prepare their stock solutions at a concentration of 50 mM. Then, they were pipetted to mix in the culture medium to make the maximum tested concentration of 200 µM containing 0.4% DMSO. Then, the 200 µM tested solution was further diluted with a culture medium, giving the concentration series of 200, 100, 50, and 25 μM (2-fold dilution). The working concentrations of the test compounds [25, 50, 100, and 200 μM] were used to treat cells.
(§2) Raw264.7 cells were seeded at a density of 5 × 10^4 cells/well in a 96-well plate. The cells were pre-treated with various concentrations of samples for 24 h. Cells were induced with 100 ng/mL LPS for 24 h. The culture supernatant was collected for NO production analysis, and cells were further examined for their viability.
The NO production was measured using a Griess reagent kit (Invitrogen, Thermo Fisher Scientific, Waltham, MA, USA). Ninety µL of culture media were mixed with 10 µL of Griess reagent and incubated at room temperature for 30 min, and then the NO concentration was measured at 540 nm using the microplate reader. The percentage of NO production was calculated as Equation (1). (1) %NO production = A/B × 100
A: The concentration of the nitric oxide in the cells induced by LPS and with sample pre-treatment [LPS (+), sample (+)].
B: The concentration of nitric oxide in the cells induced by LPS without sample pre-treatment [LPS (+), sample (−)].
The NO inhibitory activity was expressed as half the maximum (IC50) of the inhibitory concentration calculated using GraphPad Prism 9.

RAW 264.7 cells = assay: Cytotoxicity / cell viability by MTT assay in LPS-induced RAW 264.7 cells; format: cell-based; conditions: for Cytotoxicity: MTT, concentration at which cell viability was lower than 80%, maximum concentration 200 μM
Protocol: as §1, §2
The cell viability was measured by the MTT assay. An MTT solution (1 mg/mL) was added to each well and incubated for 4 h at 37 °C. Then, the MTT solution was removed, and the formazan production was dissolved with DMSO. The absorbance was measured at 570 nm using a microplate reader (BioTeK, Santa Clara, CA, USA).

NO = test system: NO; parameters: method as in PMID 32163787; conditions: read-out: NO inhibitory activity IC50; cited from earlier work
[2] = RAW264.7, pre-treated 24 h, then 100 ng/mL LPS 24 h, Mean ± SD from three independent experiments, tested 25-200 μM, read-out: IC50 of NO Inhibition

IC50 [1, 2] | IC50 ([1]; RAW264.7, above the 200 μM maximum tested concentration, Mean ± SD, read-out: IC50 of NO Inhibition (value in parentheses, above the maximum tested concentration)) | Molecule | inhibition of nitric oxide production (in words) [1] | nitric oxide inhibition activity compared with indomethacin [1] | Cytotoxicity (RAW 264.7 cells) | cytotoxicity (in words) (RAW 264.7 cells; IC50 of NO inhibition could not be determined) | IC50 (NO)
186 ± 22.5 µM | – | COc1ccc2c(c1)NC(=O)[C@]2(O)CC#N [Compound 1, (+)-(S)-2-(3-hydroxy-6-methoxy-2-oxoindolin-3-yl)acetonitrile] | inhibited nitric oxide production | as strong as indomethacin | >200 µM | – | –
187 ± 23.1 µM | – | COc1ccc2c(CC#N)c([S+](C)[O-])[nH]c2c1 (stereo not drawn) [Compound 2, 2-(6-methoxy-2-(methylsulfinyl)-1H-indol-3-yl)acetonitrile] | inhibited nitric oxide production | as strong as indomethacin | >200 µM | – | –
– | – | CO/N=C(/Cc1c[nH]c2cc(OC)ccc12)SC [Compound 3, methyl (Z)-N-methoxy-2-(6-methoxy-1H-indol-3-yl)ethanimidothioate] | – | – | toxicity at 100 μM | – | –
> 200 µM | > 200 µM | CO/N=C(\SC)C(=O)c1c[nH]c2cc(OC)ccc12 [Compound 4, methyl (Z)-N-methoxy-2-(6-methoxy-1H-indol-3-yl)-2-oxoethanimidothioate] | – | – | >200 µM | – | –
92.2 ± 8.9 µM | – | CO/N=C(\C=C1\C(=O)Nc2cc(OC)ccc21)SC [Compound 5, methyl (E)-N-methoxy-2-[(E)-6-methoxy-2-oxindolin-3-ylidene]ethanimidothiolate] | inhibited nitric oxide production | stronger than indomethacin | >200 µM | – | –
– | – | COc1ccc2cc(C3=C(c4c[nH]c5cccc(OC)c45)N=C3SC)[nH]c2c1 [Compound 6, 4-methoxy-3-[3-(6-methoxy-1H-indol-2-yl)-2-(methylthio)azet-4-yl]-1H-indole] | – | – | toxicity at 100 μM | too cytotoxic | –
31.1 ± 1.8 µM | – | COc1ccc2cc(C3=C(c4c[nH]c5cccc(OC)c45)N=C3[S+](C)[O-])[nH]c2c1 (stereo not drawn) [Compound 7, 4-methoxy-3-[3-(6-methoxy-1H-indol-2-yl)-2-(methylsulfinyl)azet-4-yl]-1H-indole] | inhibited nitric oxide production | stronger than indomethacin | toxicity at 100 μM | – | –
56.7 ± 3.8 µM | – | COc1cccc2[nH]c3c(C#N)c4c(cc3c12)[nH]c1cc(O)ccc14 [Compound 8, 9-hydroxy-1-methoxy-5,11-dihydroindolo[3,2-b]carbazole-6-carbonitrile] | inhibited nitric oxide production | stronger than indomethacin | >200 µM | – | –
150 ± 16 µM | – | COc1ccc2c(c1)c(CC(=O)O)c(C)n2C(=O)c1ccc(Cl)cc1 [indomethacin, reference compound] | – | – | >200 µM | – | –
– | – | isatindigoside F | – | – | – | – | 70.3 ± 6.9 µM
– | – | isatindigoside G | – | – | – | – | 67.3 ± 5.5 µM
